# Assays:
# PHKg1 = PHKg1 (Homo sapiens, UniProt Q16816); settings: 1 μM; Run 1, Run 2
# PIM3 = PIM3 (Homo sapiens, UniProt Q86V86); settings: 1 μM; Run 1, Run 2
# PKCiota = biological target: T1, PKCiota (Homo sapiens, UniProt P41743); settings: 1 μM; Run 1, Run 2
# T1 sequence (P41743 1-596): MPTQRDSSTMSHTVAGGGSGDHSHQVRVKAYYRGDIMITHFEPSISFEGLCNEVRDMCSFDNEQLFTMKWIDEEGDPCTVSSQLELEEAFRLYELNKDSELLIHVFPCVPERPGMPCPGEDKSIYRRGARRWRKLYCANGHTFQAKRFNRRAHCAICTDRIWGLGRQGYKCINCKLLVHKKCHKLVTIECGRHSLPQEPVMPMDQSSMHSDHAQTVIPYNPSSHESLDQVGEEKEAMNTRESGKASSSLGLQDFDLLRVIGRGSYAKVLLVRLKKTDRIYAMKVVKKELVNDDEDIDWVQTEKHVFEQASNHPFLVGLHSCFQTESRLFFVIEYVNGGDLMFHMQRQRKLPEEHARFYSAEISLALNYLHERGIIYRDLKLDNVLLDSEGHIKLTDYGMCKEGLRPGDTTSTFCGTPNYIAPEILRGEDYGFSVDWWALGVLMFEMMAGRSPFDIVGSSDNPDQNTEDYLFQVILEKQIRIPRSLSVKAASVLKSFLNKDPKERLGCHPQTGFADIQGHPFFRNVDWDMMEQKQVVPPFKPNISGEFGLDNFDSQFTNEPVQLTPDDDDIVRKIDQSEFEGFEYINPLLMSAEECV
# ULK3 = biological target: T2, ULK3 (Homo sapiens, UniProt Q6PHR2); settings: 1 μM; Run 1, Run 2
# T2 sequence (Q6PHR2 1-472): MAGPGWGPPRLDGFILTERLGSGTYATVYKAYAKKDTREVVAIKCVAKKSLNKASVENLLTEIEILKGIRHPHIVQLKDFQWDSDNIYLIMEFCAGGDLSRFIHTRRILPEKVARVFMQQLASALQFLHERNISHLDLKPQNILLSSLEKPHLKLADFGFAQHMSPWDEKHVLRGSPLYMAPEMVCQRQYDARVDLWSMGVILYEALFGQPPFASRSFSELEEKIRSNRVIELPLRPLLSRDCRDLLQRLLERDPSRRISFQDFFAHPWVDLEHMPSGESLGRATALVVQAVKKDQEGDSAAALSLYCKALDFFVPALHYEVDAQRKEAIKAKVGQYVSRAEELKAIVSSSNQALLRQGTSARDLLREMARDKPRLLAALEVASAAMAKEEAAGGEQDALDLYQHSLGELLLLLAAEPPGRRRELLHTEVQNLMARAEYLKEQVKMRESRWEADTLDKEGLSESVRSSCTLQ
# DAPK2 = DAPK2 (Homo sapiens, UniProt Q9UIK4); test: biochemical; settings: read-out: % enzyme activity, 1 μM; Run 1, Run 2
# FRK/PTK5 = FRK/PTK5 (Homo sapiens, UniProt P42685); test: biochemical; settings: read-out: % enzyme activity, 1 μM; Run 1, Run 2
# JNK3 = JNK3 (Homo sapiens, UniProt P53779); test: biochemical; settings: read-out: % enzyme activity, 1 μM; Run 1, Run 2
# KDR/VEGFR2 = KDR/VEGFR2 (Homo sapiens, UniProt P35968); test: biochemical; settings: read-out: % enzyme activity, 1 μM; Run 1, Run 2
# MASTL = biological target: T3, MASTL (Homo sapiens, UniProt Q96GX5); test: biochemical; settings: read-out: % enzyme activity, 1 μM; Run 1, Run 2
# T3 sequence (Q96GX5 1-879): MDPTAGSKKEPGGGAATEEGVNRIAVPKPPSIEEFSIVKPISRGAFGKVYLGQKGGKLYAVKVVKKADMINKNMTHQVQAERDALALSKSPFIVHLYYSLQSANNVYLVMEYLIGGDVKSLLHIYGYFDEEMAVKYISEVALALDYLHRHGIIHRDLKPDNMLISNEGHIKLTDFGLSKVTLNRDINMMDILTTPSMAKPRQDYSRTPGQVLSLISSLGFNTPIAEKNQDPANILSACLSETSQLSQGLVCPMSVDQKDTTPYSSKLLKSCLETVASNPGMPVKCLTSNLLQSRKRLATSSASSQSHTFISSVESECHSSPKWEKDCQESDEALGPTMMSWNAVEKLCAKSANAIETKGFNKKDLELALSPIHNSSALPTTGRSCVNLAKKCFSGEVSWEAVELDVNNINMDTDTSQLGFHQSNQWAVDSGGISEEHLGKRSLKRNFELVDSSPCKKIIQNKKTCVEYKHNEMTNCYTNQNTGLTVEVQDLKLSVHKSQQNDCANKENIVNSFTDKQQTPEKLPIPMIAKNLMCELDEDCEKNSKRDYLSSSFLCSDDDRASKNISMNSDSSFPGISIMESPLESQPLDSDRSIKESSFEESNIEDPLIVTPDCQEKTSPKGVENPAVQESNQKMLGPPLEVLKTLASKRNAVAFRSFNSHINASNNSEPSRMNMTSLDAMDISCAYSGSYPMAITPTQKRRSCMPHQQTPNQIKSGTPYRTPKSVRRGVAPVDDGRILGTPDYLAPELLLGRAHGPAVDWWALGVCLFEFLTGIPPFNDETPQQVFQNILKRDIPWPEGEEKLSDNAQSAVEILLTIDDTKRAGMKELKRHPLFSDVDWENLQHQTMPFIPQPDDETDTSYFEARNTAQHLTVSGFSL
# PAK4 = PAK4 (Homo sapiens, UniProt O96013); test: biochemical; settings: read-out: % enzyme activity, 1 μM; Run 1, Run 2
# RSK1 = RSK1 (Homo sapiens, UniProt Q15418); test: biochemical; settings: read-out: % enzyme activity, 1 μM; Run 1, Run 2
# STK22D/TSSK1 = biological target: T4, STK22D/TSSK1 (Homo sapiens, UniProt Q9BXA7); test: biochemical; settings: read-out: % enzyme activity, 1 μM; Run 1, Run 2
# T4 sequence (Q9BXA7 1-367): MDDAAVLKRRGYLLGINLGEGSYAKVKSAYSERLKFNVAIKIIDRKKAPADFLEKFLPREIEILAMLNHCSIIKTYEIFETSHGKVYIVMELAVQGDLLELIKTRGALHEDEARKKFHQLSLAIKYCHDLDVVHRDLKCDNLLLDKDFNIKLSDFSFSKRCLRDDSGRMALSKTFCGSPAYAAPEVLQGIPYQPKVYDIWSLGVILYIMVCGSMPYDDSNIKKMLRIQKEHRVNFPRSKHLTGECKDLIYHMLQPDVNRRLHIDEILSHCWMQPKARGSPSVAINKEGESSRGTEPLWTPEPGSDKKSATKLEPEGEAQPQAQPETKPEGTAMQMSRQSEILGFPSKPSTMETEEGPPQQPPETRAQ
# TTBK2 = TTBK2 (Homo sapiens, UniProt Q6IQ55); test: biochemical; settings: read-out: % enzyme activity, 1 μM; Run 1, Run 2
# Sequence of TTBK2 (Q6IQ55 whole entry): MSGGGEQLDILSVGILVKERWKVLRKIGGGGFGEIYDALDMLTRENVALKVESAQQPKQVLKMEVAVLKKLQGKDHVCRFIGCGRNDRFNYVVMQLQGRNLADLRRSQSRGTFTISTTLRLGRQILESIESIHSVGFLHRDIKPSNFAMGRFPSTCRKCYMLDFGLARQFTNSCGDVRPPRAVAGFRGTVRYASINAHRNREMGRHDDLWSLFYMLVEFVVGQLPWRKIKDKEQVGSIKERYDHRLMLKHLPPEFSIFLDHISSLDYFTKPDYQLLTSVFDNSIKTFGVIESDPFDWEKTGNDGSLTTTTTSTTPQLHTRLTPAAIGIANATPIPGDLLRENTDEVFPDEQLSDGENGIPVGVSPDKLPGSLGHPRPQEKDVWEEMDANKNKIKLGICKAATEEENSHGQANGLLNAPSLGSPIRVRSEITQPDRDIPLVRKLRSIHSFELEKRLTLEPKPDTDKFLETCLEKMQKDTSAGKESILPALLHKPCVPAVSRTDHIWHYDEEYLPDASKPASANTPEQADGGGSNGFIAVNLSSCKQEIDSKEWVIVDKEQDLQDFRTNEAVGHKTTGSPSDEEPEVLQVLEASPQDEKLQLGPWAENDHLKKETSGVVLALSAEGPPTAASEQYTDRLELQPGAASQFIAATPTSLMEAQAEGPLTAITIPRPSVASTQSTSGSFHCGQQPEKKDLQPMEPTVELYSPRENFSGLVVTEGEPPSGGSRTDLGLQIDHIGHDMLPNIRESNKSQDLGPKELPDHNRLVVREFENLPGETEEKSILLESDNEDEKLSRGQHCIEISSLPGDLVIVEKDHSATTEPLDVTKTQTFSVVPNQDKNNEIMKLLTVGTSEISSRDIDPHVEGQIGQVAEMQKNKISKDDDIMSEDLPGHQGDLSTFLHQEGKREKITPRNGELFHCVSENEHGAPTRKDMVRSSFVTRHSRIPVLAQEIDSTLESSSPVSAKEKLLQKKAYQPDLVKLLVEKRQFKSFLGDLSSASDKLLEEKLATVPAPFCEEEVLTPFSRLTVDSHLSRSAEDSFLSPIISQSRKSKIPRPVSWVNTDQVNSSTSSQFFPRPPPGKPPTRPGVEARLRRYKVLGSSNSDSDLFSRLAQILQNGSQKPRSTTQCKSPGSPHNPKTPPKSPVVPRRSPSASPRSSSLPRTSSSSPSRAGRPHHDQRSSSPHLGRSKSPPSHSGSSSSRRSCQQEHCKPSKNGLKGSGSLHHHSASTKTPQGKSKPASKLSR
# Sequence of JNK3 (P53779 whole entry): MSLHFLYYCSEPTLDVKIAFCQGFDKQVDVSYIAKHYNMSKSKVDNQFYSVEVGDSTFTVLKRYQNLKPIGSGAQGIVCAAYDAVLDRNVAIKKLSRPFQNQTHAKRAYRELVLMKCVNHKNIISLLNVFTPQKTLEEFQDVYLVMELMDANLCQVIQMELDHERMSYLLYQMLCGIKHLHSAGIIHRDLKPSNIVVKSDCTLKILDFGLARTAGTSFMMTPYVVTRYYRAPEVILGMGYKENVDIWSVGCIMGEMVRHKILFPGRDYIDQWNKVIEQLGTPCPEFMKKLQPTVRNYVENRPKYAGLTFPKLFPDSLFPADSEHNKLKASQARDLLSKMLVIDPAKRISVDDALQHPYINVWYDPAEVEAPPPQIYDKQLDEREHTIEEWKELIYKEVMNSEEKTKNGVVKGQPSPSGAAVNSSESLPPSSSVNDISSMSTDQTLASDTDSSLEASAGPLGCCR
# Sequence of FRK/PTK5 (P42685 whole entry): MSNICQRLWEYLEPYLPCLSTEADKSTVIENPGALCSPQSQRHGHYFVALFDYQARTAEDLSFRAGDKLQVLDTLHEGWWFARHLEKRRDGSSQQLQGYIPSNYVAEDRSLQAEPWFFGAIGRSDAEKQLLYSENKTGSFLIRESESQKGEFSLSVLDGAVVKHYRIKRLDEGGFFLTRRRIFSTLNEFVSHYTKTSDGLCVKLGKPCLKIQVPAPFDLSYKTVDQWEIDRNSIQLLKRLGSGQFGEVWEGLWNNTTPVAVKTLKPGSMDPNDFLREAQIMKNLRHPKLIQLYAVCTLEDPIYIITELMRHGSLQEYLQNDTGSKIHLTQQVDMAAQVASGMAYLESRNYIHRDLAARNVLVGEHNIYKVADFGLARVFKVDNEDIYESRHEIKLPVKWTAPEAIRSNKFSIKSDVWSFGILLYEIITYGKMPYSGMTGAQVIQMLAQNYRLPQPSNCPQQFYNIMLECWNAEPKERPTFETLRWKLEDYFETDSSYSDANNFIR
# Sequence of DAPK2 (Q9UIK4 whole entry): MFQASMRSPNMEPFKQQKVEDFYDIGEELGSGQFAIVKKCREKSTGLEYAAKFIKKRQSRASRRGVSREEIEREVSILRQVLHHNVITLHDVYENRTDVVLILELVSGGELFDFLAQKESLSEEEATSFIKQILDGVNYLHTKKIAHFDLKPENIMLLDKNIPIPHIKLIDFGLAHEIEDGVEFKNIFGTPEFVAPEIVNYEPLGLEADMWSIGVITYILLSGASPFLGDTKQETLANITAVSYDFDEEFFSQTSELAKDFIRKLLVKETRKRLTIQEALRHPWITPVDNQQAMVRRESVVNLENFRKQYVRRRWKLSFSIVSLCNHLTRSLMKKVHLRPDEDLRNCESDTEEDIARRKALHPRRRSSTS
# Sequence of RSK1 (Q15418 whole entry): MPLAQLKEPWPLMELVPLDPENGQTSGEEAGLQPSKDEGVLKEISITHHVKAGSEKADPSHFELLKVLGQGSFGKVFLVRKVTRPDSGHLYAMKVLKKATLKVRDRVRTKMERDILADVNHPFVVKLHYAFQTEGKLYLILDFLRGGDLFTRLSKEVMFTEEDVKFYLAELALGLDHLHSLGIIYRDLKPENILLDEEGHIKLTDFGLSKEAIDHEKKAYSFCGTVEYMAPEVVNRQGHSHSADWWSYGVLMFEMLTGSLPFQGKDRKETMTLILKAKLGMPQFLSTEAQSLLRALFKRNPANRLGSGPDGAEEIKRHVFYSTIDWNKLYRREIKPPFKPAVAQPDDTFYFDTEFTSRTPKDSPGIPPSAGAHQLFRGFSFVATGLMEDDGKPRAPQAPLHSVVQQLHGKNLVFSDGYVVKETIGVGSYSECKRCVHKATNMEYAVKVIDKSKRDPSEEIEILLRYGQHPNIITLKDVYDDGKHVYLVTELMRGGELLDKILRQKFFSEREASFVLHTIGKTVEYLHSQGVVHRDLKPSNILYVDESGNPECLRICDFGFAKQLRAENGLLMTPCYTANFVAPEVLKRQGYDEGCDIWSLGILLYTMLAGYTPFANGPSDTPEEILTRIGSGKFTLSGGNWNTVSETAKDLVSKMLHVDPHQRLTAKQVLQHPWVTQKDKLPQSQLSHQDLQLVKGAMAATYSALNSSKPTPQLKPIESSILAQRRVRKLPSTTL
# Sequence of PHKg1 (Q16816 whole entry): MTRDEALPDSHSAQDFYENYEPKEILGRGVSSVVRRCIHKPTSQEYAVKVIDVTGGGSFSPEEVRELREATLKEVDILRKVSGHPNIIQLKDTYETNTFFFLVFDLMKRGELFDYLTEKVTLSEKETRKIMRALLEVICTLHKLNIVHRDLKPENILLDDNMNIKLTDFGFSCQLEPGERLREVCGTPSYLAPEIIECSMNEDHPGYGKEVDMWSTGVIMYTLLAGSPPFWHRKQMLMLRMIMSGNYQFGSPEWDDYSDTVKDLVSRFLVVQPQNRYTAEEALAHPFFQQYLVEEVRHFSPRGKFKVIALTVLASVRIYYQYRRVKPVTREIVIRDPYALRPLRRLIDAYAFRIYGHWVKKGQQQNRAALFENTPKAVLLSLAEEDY
# Sequence of PAK4 (O96013 whole entry): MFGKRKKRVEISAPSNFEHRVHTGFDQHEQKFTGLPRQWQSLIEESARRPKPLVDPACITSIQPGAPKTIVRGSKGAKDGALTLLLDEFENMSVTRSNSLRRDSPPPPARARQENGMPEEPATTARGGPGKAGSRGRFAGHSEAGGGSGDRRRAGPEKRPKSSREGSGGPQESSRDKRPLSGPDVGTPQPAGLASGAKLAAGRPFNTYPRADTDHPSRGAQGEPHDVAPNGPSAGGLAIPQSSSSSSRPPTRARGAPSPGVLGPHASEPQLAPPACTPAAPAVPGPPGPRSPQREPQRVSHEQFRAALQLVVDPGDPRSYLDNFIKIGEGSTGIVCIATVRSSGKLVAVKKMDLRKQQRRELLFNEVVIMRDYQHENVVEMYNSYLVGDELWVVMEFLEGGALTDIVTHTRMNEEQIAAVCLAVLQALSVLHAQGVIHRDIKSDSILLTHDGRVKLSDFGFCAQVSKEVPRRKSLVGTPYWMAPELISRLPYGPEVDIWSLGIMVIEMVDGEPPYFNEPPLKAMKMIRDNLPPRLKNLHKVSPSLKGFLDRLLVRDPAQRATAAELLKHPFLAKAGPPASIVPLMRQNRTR
SMILES,% enzyme activity (PHKg1),% enzyme activity (PIM3),% enzyme activity (PKCiota),% enzyme activity (ULK3),remaining activity at 1 µM (DAPK2),remaining activity at 1 µM (FRK/PTK5),remaining activity at 1 µM (JNK3),remaining activity at 1 µM (KDR/VEGFR2),remaining activity at 1 µM (MASTL),remaining activity at 1 µM (PAK4),remaining activity at 1 µM (RSK1),remaining activity at 1 µM (STK22D/TSSK1),remaining activity at 1 µM (TTBK2)
"COc1cc(-c2cncc(-c3ccc(N4CCN(C)CC4)cc3)c2C)cc(F)c1C(N)=O [Compound 26a, 2-Fluoro-6-methoxy-4-(4-methyl-5-(4-(4-methylpiperazin-1-yl)phenyl)pyridin-3-yl)benzamide]",82.79%,99.10%,100.36%,91.23%,103%,101%,96.4%,95.9%,99.3%,98.5%,98.9%,97.5%,97.1%
"COc1cc(-c2cncc(-c3ccc(N4C[C@@H](C)N(C)[C@@H](C)C4)cc3)c2C)cc(F)c1C(N)=O [Compound 26c, 2-Fluoro-6-methoxy-4-(4-methyl-5-(4-((3R,5S)-3,4,5-trimethylpiperazin-1-yl)phenyl)pyridin-3-yl)benzamide]",95.24%,106.19%,98.91%,97.24%,100%,98.2%,104%,88.4%,102%,99.9%,102%,101%,97.8%

# From PMC8213057, “Targeting ALK2: An Open Science Approach to Developing Therapeutics for the Treatment of Diffuse Intrinsic Pontine Glioma” (Journal of Medicinal Chemistry, 2020)
